Data on 30 compounds can be found in ChEMBL document CHEMBL1143644, “Synthesis and biological activities of novel aryl indole-2-carboxylic acid analogs as PPARgamma partial agonists” (Bioorg Med Chem Lett, 2005).

Series [1] has as its target T1, Peroxisome proliferator-activated receptor alpha (Homo sapiens, UniProt Q07869).
T1 sequence (Q07869 whole entry): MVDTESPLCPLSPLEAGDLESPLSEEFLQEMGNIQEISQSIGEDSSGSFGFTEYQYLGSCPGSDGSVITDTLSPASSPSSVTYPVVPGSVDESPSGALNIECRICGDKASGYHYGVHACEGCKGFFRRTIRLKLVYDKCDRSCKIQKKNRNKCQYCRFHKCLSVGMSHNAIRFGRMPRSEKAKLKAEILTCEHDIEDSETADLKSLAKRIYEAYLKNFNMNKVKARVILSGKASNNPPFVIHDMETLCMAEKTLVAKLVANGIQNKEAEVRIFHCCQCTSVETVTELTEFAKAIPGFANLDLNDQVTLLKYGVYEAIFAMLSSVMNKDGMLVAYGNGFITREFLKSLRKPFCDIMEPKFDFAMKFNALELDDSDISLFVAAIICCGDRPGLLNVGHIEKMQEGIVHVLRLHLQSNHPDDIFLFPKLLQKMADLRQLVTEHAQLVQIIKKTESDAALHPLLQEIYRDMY
As to the kind of experiment: Inhibitory concentration against human peroxisome proliferator activated receptor alpha in SPA assay.

The target of series [2] is T2, Peroxisome proliferator-activated receptor gamma (Homo sapiens, UniProt P37231).
T2 sequence (P37231 whole entry): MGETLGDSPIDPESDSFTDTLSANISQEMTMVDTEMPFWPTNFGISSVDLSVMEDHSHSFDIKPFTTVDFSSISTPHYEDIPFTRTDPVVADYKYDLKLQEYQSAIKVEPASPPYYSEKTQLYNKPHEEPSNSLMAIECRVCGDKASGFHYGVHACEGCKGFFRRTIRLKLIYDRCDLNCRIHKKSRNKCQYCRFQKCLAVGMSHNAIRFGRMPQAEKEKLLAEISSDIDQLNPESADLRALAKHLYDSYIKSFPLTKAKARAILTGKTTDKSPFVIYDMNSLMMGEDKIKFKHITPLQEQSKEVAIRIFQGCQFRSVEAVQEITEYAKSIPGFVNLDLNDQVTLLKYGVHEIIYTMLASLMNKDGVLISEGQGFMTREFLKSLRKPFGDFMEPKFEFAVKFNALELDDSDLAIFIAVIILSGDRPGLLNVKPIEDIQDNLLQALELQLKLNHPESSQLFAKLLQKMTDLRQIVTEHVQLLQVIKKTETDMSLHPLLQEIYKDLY
Description: Inhibitory concentration against human peroxisome proliferator activated receptor gamma in SPA assay

Series [3] can be described thus: Bioavailability. The class given is ADME, organism-based. The conditions noted are these: eutheria, in vivo.
Series [4] is described as follows: Half life at normal dose was determined. The class given is ADME.
The target in series [5] is T2, Peroxisome proliferator-activated receptor gamma. As to the kind of experiment: Effective agonist concentration for human PPAR gamma Gal4 construct in transactivation assay. Format: functional.
A short description of series [6]: Area under curve at normal dose was determined. Format: ADME.

For orientation: IC50 means the concentration that inhibits the measured activity by half. `CC(C)(C)c1ccc(-n2c(C(=O)O)c(Oc3cc(C(F)(F)F)cc(C(F)(F)F)c3)c3cc(Cl)ccc32)cc1`: the IC50 is above 15000 nM in series [1] and 83 nM in series [2].
For `COc1ccc2c(c1)c(Oc1cccc(C(F)(F)F)c1)c(C(=O)O)n2-c1ccc(C(C)(C)C)cc1`, in that order: above 15000 nM and 39 nM.
By bioavailability is commonly meant the share of a dose that reaches the circulation, judged against a reference dose that is usually intravenous. High values mean much systemic uptake, low ones little systemic uptake. In general, half-life refers to the time in which the quantity being followed falls by half. The term EC50 denotes the concentration at which the effect is half-maximal. Higher therefore signals weaker potency. Turning to `CC(C)(C)c1ccc(-n2c(C(=O)O)c(Oc3cccc(C(F)(F)F)c3)c3cc(Oc4cc(C(F)(F)F)ccn4)ccc32)cc1`, the bioavailability in series [3] was 2.4%. The compound further showed a half-life in series [4] of 48 min. For the same compound, in series [5], the EC50 came to 6 nM.
For `CC(C)(C)c1ccc(-n2c(C(=O)O)c(Oc3cccc(-c4cc(C(F)(F)F)c[nH]4)c3)c3ccc(Cl)nc32)cc1`, the IC50 in series [1] is above 50000 nM; in series [2] it was 58 nM. The compound further showed an EC50 in series [5] of 95 nM.
For `CC(C)COc1ccc2c(c1)c(Oc1cccc(C(F)(F)F)c1)c(C(=O)O)n2-c1ccc(C(C)(C)C)cc1`, in that order: 4150 nM, 18 nM and 91 nM.
For `CC(C)(C)c1ccc(-n2c(C(=O)O)c(Oc3ccc(Cl)cc3)c3ccc(OC(F)(F)F)cc32)cc1`, in that order: above 15000 nM, 298 nM and 411 nM.
In the case of `CC(C)c1cccc(-n2c(C(=O)O)c(Oc3cccc(C(F)(F)F)c3)c3ccccc32)c1`, the values for the IC50 in series [1] and in series [2] were above 15000 nM and 60 nM, respectively.
Take `CC(C)(C)c1ccc(-n2c(C(=O)O)c(Oc3ccc(-c4cc(C(F)(F)F)c[nH]4)cc3)c3cccnc32)cc1`: the results for the IC50 in series [1] and in series [2] were above 50000 nM and 251 nM, respectively. In series [5], this compound yielded an EC50 of 34 nM.
On the same counts, the results for `CC(C)(C)c1ccc(-n2c(C(=O)O)c(Oc3cccc(C(F)(F)F)c3)c3ccc(Cl)nc32)cc1` are above 15000 nM, 21 nM and 176 nM.
As to `O=C(O)c1c(Oc2cccc(C(F)(F)F)c2)c2ccccc2n1-c1ccc(C(F)(F)F)cc1`, the IC50 in series [1] amounted to 3200 nM; in series [2], 107 nM.
As to `COc1cccc(Oc2c(C(=O)O)n(-c3ccc(C(C)(C)C)cc3)c3nc(Cl)ccc23)c1`, the values for the half-maximal inhibitory concentration (IC50) in series [1] and in series [2] were above 15000 nM and 104 nM, respectively. In series [5], this compound had an EC50 of 755 nM.
As for `CC(C)c1cccc(Oc2c(C(=O)O)n(-c3ccc(C(C)(C)C)cc3)c3cc(Cl)ccc23)c1`, the results for the IC50 in series [1] and in series [2] were above 15000 nM and 19 nM, respectively.
On the same counts, the results for `CC(C)c1cccc(-n2c(C(=O)O)c(Oc3ccc(C(F)(F)F)cc3)c3ccccc32)c1` are above 15000 nM and 120 nM.
With `CC(C)(C)c1ccc(-n2c(C(=O)O)c(Oc3cccc(O)c3)c3ccccc32)cc1`, the figures for the IC50 in series [1] and in series [2] were above 50000 nM and 78 nM, respectively. Further, a half-maximal effect in series [5] (EC50) was put at 161 nM.
With `CCOc1ccc2c(c1)c(Oc1cccc(C(F)(F)F)c1)c(C(=O)O)n2-c1ccc(C(C)(C)C)cc1`, the values for the concentration for half-maximal inhibition (IC50) in series [1] and in series [2] were 6270 nM and 18 nM, respectively. Also, in series [5], a half-maximal effect (EC50) was put at 34 nM.
On the same counts, the results for `CC(C)(C)c1ccc(-n2c(C(=O)O)c(Oc3cccc(C(F)(F)F)c3)c3cccnc32)cc1` are above 50000 nM, 75 nM and 464 nM.
Turning to `CC(C)(C)c1ccc(-n2c(C(=O)O)c(Oc3ccc(OC(F)(F)F)cc3)c3ccccc32)cc1`, the values for the IC50 in series [1] and in series [2] were 3580 nM and 49 nM, respectively.
For `CC(C)(C)c1ccc(-n2c(C(=O)O)c(Oc3cccc(C(F)(F)F)c3)c3cc(Cl)ccc32)cc1`, the values for the IC50 in series [1] and in series [2] were above 15000 nM and 17 nM, respectively. In series [5], this compound gave a 50% effective concentration (EC50) of 136 nM.
For orientation: AUC means concentration integrated over time. As for `CC(C)(C)c1ccc(-n2c(C(=O)O)c(Oc3cccc(C(F)(F)F)c3)c3ccccc32)cc1`, the IC50 is 10600 nM in series [1] and 12 nM in series [2]. For the same compound, in series [4], the half-life is 30 min. The AUC in series [6] is 9.19 µM·h. The EC50 in series [5] was 13 nM.
For `COc1ccc2c(Oc3cccc(C(F)(F)F)c3)c(C(=O)O)n(-c3ccc(C(C)(C)C)cc3)c2n1`, the IC50 was above 15000 nM in series [1] and 100 nM in series [2]. The same compound showed an EC50 in series [5] of 299 nM.
For the compound `CC(C)(C)c1ccc(-n2c(C(=O)O)c(Oc3cccc(S(C)(=O)=O)c3)c3ccc(Cl)nc32)cc1`, the figures for the IC50 in series [1] and in series [2] were above 50000 nM and 202 nM, respectively.
As to `CC(C)(C)c1ccc(-n2c(C(=O)O)c(Oc3cccc(C(F)(F)F)c3)c3ccc(Cl)cc32)cc1`, the IC50 is above 15000 nM in series [1] and 27 nM in series [2]. In series [5], this compound registered a concentration for a half-maximal effect (EC50) of 106 nM.
On to `CC(C)(C)c1ccc(-n2c(C(=O)O)c(Oc3cccc(C(F)(F)F)c3)c3cc(Oc4ccccn4)ccc32)cc1`, for which a half-maximal response in series [5] (EC50) required 126 nM.
On to `CC(C)(C)c1ccc(-n2c(C(=O)O)c(Oc3cccc(C(F)(F)F)c3)c3cc(O)ccc32)cc1`, for which the results for the IC50 in series [1] and in series [2] were above 50000 nM and 318 nM, respectively.
Turning to `O=C(O)c1c(Sc2ccccc2)c2cc(Cl)ccc2n1Cc1ccc(Cl)cc1`, the IC50 in series [1] is above 15000 nM.
`CC(C)(C)c1ccc(-n2c(C(=O)O)c(Oc3cccc(C(F)(F)F)c3)c3cc(Oc4cc(Cl)c[nH]4)ccc32)cc1` registered a bioavailability in series [3] of 9.8%. Further, the IC50 in series [1] is above 15000 nM; in series [2], 2 nM. This compound showed a half-life in series [4] of 108 min. Besides, the AUC in series [6] amounted to 0.3 µM·h. In series [5], this compound came in with an EC50 of 2 nM.
In the case of `COc1ccc(-n2c(C(=O)O)c(Oc3cccc(C(F)(F)F)c3)c3ccccc32)cc1`, the 50% inhibitory concentration (IC50) in series [1] is above 50000 nM; in series [2], 115 nM. This compound also displayed a concentration for a half-maximal effect (EC50) in series [5] of 334 nM.
In the case of `CC(C)(C)c1ccc(-n2c(C(=O)O)c(Oc3ccc(Cl)c(C(F)(F)F)c3)c3cc(Cl)ccc32)cc1`, the IC50 in series [1] is 4480 nM; in series [2], 13 nM.
For `CCOc1cccc(Oc2c(C(=O)O)n(-c3ccc(C(C)(C)C)cc3)c3ccccc23)c1`, the half-maximal inhibitory concentration (IC50) in series [1] was above 50000 nM; in series [2], 49 nM. This compound yielded an EC50 in series [5] of 233 nM.
As to `CC(C)c1cccc(-n2c(C(=O)O)c(Oc3cccc(O)c3)c3ccccc32)c1`, the half-maximal inhibitory concentration (IC50) in series [1] is above 50000 nM; in series [2] it was 102 nM.
